Reference: ChEMBL document CHEMBL2169792, “Synthesis of new 4-thiazolidinone-, pyrazoline-, and isatin-based conjugates with promising antitumor activity” (J Med Chem, 2012)

Tests used:
Format in all cases: functional
MDA-MB-468 = assay: Cytotoxicity against human MDA-MB-468 cells after 48 hrs by SRB assay; details: MDA-MB-468, 48 h
BT-549 = assay: Cytotoxicity against human BT549 cells after 48 hrs by SRB assay; details: BT-549, 48 h
Hs-578T = assay: Cytotoxicity against human Hs578T cells after 48 hrs by SRB assay
MDA-MB-231 = assay: Cytotoxicity against human MDA-MB-231 cells after 48 hrs by SRB assay; details: MDA-MB-231, 48 h
MCF7 = assay: Cytotoxicity against human MCF7 cells after 48 hrs by SRB assay; details: MCF7, 48 h
DU-145 = assay: Cytotoxicity against human DU145 cells after 48 hrs by SRB assay; details: DU-145, 48 h
UO-31 = assay: Cytotoxicity against human UO31 cells after 48 hrs by SRB assay; details: UO-31, 48 h
CAKI-1 = assay: Cytotoxicity against human CAKI-1 cells after 48 hrs by SRB assay; details: CAKI-1, 48 h
A498 = assay: Cytotoxicity against human A498 cells after 48 hrs by SRB assay; details: A498, 48 h
786-0 = assay: Cytotoxicity against human 786-0 cells after 48 hrs by SRB assay; details: 786-0, 48 h
SK-OV-3 = assay: Cytotoxicity against human SKOV3 cells after 48 hrs by SRB assay; details: SK-OV-3, 48 h
OVCAR-8 = assay: Cytotoxicity against human OVCAR8 cells after 48 hrs by SRB assay; details: OVCAR-8, 48 h
OVCAR-3 = assay: Cytotoxicity against human OVCAR3 cells after 48 hrs by SRB assay; details: OVCAR-3, 48 h
SK-MEL-28 = assay: Cytotoxicity against human SK-MEL-28 cells after 48 hrs by SRB assay; details: SK-MEL-28, 48 h
M14 = assay: Cytotoxicity against human M14 cells after 48 hrs by SRB assay; details: M14, 48 h
Malme-3M = assay: Cytotoxicity against human MALME-3M cells after 48 hrs by SRB assay
SNB-19 = assay: Cytotoxicity against human SNB19 cells after 48 hrs by SRB assay; details: SNB-19, 48 h
SF-295 = assay: Cytotoxicity against human SF295 cells after 48 hrs by SRB assay; details: SF-295, 48 h
HT-29 = assay: Cytotoxicity against human HT-29 cells after 48 hrs by SRB assay; details: HT-29, 48 h
HCT-15 = assay: Cytotoxicity against human HCT15 cells after 48 hrs by SRB assay; details: HCT-15, 48 h
HCT-116 = assay: Cytotoxicity against human HCT116 cells after 48 hrs by SRB assay; details: HCT-116, 48 h
NCI-H460 = assay: Cytotoxicity against human NCI-H460 cells after 48 hrs by SRB assay; details: NCI-H460, 48 h
NCI-H23 = assay: Cytotoxicity against human NCI-H23 cells after 48 hrs by SRB assay; details: NCI-H23, 48 h
NCI-H226 = assay: Cytotoxicity against human NCI-H226 cells after 48 hrs by SRB assay; details: NCI-H226, 48 h
HOP-62 = assay: Cytotoxicity against human HOP62 cells after 48 hrs by SRB assay; details: HOP-62, 48 h
EKVX = assay: Cytotoxicity against human EKVX cells after 48 hrs by SRB assay
A549 = assay: Cytotoxicity against human A549 cells after 48 hrs by SRB assay; details: A549, 48 h
RPMI-8226 = assay: Cytotoxicity against human RPMI8226 cells after 48 hrs by SRB assay; details: RPMI-8226, 48 h
MOLT-4 = assay: Cytotoxicity against human MOLT4 cells after 48 hrs by SRB assay; details: MOLT-4, 48 h
K562 = assay: Cytotoxicity against human K562 cells after 48 hrs by SRB assay; details: K562, 48 h
CCRF-CEM = assay: Cytotoxicity against human CCRF-CEM cells after 48 hrs by SRB assay
HL-60(TB) = assay: Cytotoxicity against human HL-60(TB) cells after 48 hrs by SRB assay; details: HL-60, 48 h
[1] = Cytotoxicity against human non-small cell lung cancer cells after 48 hrs by SRB assay; details: Cancer cell lines
[2] = Cytotoxicity against human breast cancer cells after 48 hrs by SRB assay; details: Cancer cell lines
[3] = Cytotoxicity against human leukemia cells after 48 hrs by SRB assay; details: Leukemia cell
[4] = read-out: LC50 (the source's name)

## COc1ccc(C2CC(c3ccc4ccccc4c3)=NN2C2=NC(=O)/C(=C3\C(=O)Nc4ccc(Br)cc43)S2)cc1 (configuration not stated)
MDA-MB-468
  GI50: 22.3 nM
  TGI: 62.2 nM
MDA-MB-468; [4]
  CC50: 190 nM
BT-549
  GI50: 553 nM
  TGI: 7.74 µM
BT-549; [4]
  CC50: 35.1 µM
Hs-578T
  GI50: 64.4 nM
  TGI: > 1030 nM
Hs-578T; [4]
  CC50: > 100 µM
MDA-MB-231
  GI50: 14.5 nM
  TGI: 62.7 nM
MDA-MB-231; [4]
  CC50: 349 nM
MCF7
  GI50: 26.4 nM
  TGI: > 74.7 nM
MCF7; [4]
  CC50: > 586 nM
DU-145
  GI50: 39.3 nM
  TGI: 752 nM
DU-145; [4]
  CC50: 25.5 µM
UO-31
  GI50: 57.8 nM
CAKI-1
  GI50: 96.5 nM
  TGI: 608 nM
CAKI-1; [4]
  CC50: > 100 µM
A498
  GI50: 25.1 nM
  TGI: 78.6 nM
A498; [4]
  CC50: 316 nM
786-0
  GI50: 19.4 nM
  TGI: 38.7 nM
786-0; [4]
  CC50: > 77.2 nM
SK-OV-3
  GI50: 33 nM
  TGI: > 114 nM
SK-OV-3; [4]
  CC50: > 2840 nM
OVCAR-8
  GI50: 32 nM
  TGI: 176 nM
OVCAR-8; [4]
  CC50: 24.1 µM
OVCAR-3
  GI50: 21.6 nM
  TGI: 45 nM
OVCAR-3; [4]
  CC50: 93.7 nM
SK-MEL-28
  GI50: 21.8 nM
  TGI: 51.5 nM
SK-MEL-28; [4]
  CC50: > 205 nM
M14
  GI50: 24.5 nM
  TGI: 59.3 nM
M14; [4]
  CC50: > 210 nM
Malme-3M
  GI50: 27.7 nM
  TGI: 72.9 nM
Malme-3M; [4]
  CC50: 640 nM
SNB-19
  GI50: 38.5 nM
  TGI: 411 nM
SNB-19; [4]
  CC50: 8.98 µM
SF-295
  GI50: 26.5 nM
  TGI: 78.6 nM
SF-295; [4]
  CC50: 1170 nM
HT-29
  GI50: 199 nM
  TGI: 537 nM
HCT-15
  GI50: 62.9 nM
  TGI: 325 nM
HCT-15; [4]
  CC50: > 2450 nM
HCT-116
  GI50: 18 nM
  TGI: 33.5 nM
HCT-116; [4]
  CC50: > 62.4 nM
NCI-H460
  GI50: 33.1 nM
  TGI: 112 nM
NCI-H460; [4]
  CC50: 5.45 µM
NCI-H23
  GI50: 24.6 nM
  TGI: 56.7 nM
NCI-H23; [4]
  CC50: 291 nM
NCI-H226
  GI50: 21.5 nM
  TGI: 173 nM
NCI-H226; [4]
  CC50: 586 nM
HOP-62
  GI50: 22 nM
  TGI: 49.8 nM
HOP-62; [4]
  CC50: > 157 nM
EKVX
  GI50: 47.6 nM
  TGI: 426 nM
EKVX; [4]
  CC50: > 100 µM
A549
  GI50: 24.7 nM
  TGI: 69.5 nM
A549; [4]
  CC50: 25.7 µM
RPMI-8226
  GI50: 214 nM
  TGI: 1400 nM
RPMI-8226; [4]
  CC50: > 42.2 µM
MOLT-4
  GI50: 30.7 nM
  TGI: 521 nM
MOLT-4; [4]
  CC50: > 100 µM
K562
  GI50: 37 nM
  TGI: > 12.4 µM
K562; [4]
  CC50: > 100 µM
CCRF-CEM
  GI50: 32.9 nM
  TGI: 483 nM
CCRF-CEM; [4]
  CC50: > 100 µM
HL-60(TB)
  GI50: 257 nM
  TGI: 3.2 µM
HL-60(TB); [4]
  CC50: > 49.3 µM
[1]
  GI50: 54 nM
  TGI: 220 nM
[1]; [4]
  CC50: 41.5 µM
[2]
  GI50: 61 nM
  LC50 (concentration causing 50% net cell kill): 2650 nM
  TGI: 990 nM
[3]
  GI50: 130 nM
  TGI: 3.37 µM
[3]; [4]
  CC50: 87.8 µM
